Source: the supplement of paper PMC10307832

Compound: COc1cc2ncn(-c3cc(OCc4ccccc4C(F)(F)F)c(C(N)=O)s3)c2cc1OC + CC(C)C[C@H](NC(=O)[C@H](Cc1ccccc1)NC(=O)c1cnccn1)B(O)O [Bortezomib] (partner 0.002 µM)
Assay: relative viability (nuclei count vs DMSO), 5 days (fraction); higher = more cells survive
Summary of the method: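 Relative viability was taken as the ratio of nuclei in treated wells to nuclei in vehicle wells. Lung cancer cell lines in 1536-well plates received compounds by pin tool one day after seeding, either one drug alone or a fixed anchor-drug dose plus five library-drug doses (not always all listed) in √10 steps. Nuclei were counted on 4× images after 5 days of treatment, and values are medians of duplicate plates.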

| Cell Line | relative viability (first compound 0.05 µM) | relative viability (first compound 0.1581 µM) | relative viability (first compound 0.5 µM) | relative viability (first compound 1.581 µM) | relative viability (first compound 5 µM) |
| --- | --- | --- | --- | --- | --- |
| H3255 | 0.793 | 0.746 | 0.708 | 0.363 | 0.242 |
| EPLC-272H | 1.05 | 0.82 | 0.567 | 0.0851 | 0.135 |
| RERF-LC-KJ | 1.14 | 1.12 | 0.67 | 0.357 | 0.558 |
| EKVX | 1.1 | 0.773 | 0.991 | 0.195 | 0.487 |
| ChaGo-K-1 | 0.98 | 0.727 | 1.03 | 0.427 | 0.272 |
| NCI-H23 | 1.14 | 0.847 | 0.648 | 0.132 | 0.117 |
| EMC-BAC-2 | 1.19 | 1.08 | 0.925 | 0.416 | 0.278 |
| LOU-NH91 | 0.434 | 0.368 | 0.405 | 0.348 | 0.346 |
| LU99A | 1.14 | 1.08 | 0.898 | 0.206 | 0.201 |
| NCI-H460 | 1.08 | 0.805 | 0.487 | 0.0103 | 0.0108 |
| 201T | 1.12 | 1.13 | 1.12 | 0.902 | 0.365 |
| NCI-H2405 | 1.02 | 0.492 | 0.835 | 0.401 | 0.557 |
| NCI-H1703 | 0.384 | 0.339 | 0.172 | 0.0978 | 0.173 |
| NCI-H1755 | 0.958 | 0.965 | 0.843 | 0.355 | 0.278 |
| NCI-H2087 | 0.768 | 0.782 | 0.484 | 0.167 | 0.131 |
| NCI-H2228 | 1.01 | 0.849 | 0.208 | 0.182 | 0.18 |
| NCI-H838 | 0.979 | 0.776 | 0.525 | 0.132 | 0.0869 |
| NCI-H661 | 0.818 | 0.819 | 0.485 | 0.217 | 0.257 |
| NCI-H520 | 0.689 | 0.568 | 0.25 | 0.169 | 0.144 |
| EBC-1 | 0.454 | 0.439 | 0.208 | 0.139 | 0.159 |
| NCI-H727 | 1.05 | 0.835 | 0.583 | 0.317 | 0.381 |
| NCI-H1299 | 0.985 | 1.01 | 0.856 | 0.263 | 0.675 |
| NCI-H1993 | 1.09 | 1.13 | 0.874 | 0.618 | 0.516 |

| Cell Line | relative viability (first compound 0.05 µM) | relative viability (first compound 0.1581 µM) | relative viability (first compound 0.5 µM) | relative viability (first compound 1.581 µM) | relative viability (first compound 5 µM) |
| --- | --- | --- | --- | --- | --- |
| PC-14 | 0.723 | 0.794 | 0.404 | 0.0771 | 0.0641 |
| NCI-H1437 | 0.526 | 0.38 | 0.145 | 0.148 | 0.107 |
| LCLC-103H | 1 | 1.03 | 0.744 | 0.522 | 0.208 |
| NCI-H441 | 0.565 | 0.463 | 0.273 | 0.154 | 0.176 |
| SW 1573 | 0.975 | 1.2 | 0.867 | 0.157 | 0.565 |
| BEN | 0.911 | 0.476 | 0.801 | 0.253 | 0.244 |
| LC-2-ad | 0.866 | 0.516 | 0.399 | 0.108 | 0.106 |
| COR-L23 | 0.937 | 0.933 | 0.689 | 0.126 | 0.111 |
| NCI-H1650 | 0.222 | 0.184 | 0.185 | 0.175 | 0.172 |
| SK-LU-1 | 1.35 | 1.14 | 0.745 | 0.292 | 0.256 |
| NCI-H1915 | 1.04 | 0.925 | 0.853 | 0.107 | 0.0772 |
| NCI-H647 | 1.2 | 0.814 | 0.324 | 0.0759 | 0.0904 |
| IA-LM | 0.747 | 0.479 | 0.0694 | 0.0622 | 0.0584 |
| NCI-H2009 | 0.965 | 0.831 | 0.289 | 0.149 | 0.113 |
| NCI-H2126 | 1.16 | 1.16 | 1.03 | 0.398 | 0.314 |
| LXF-289 | 0.84 | 0.781 | 0.649 | 0.0959 | 0.0616 |
| NCI-H1563 | 0.985 | 1.01 | 0.807 | 0.676 | 0.592 |
| HCC-44 | 0.949 | 0.874 | 0.714 | 0.127 | 0.107 |
| PC-3 [JPC-3] | 0.863 | 0.803 | 0.775 | 0.285 | 0.231 |
| HOP-62 | 0.977 | 1.2 | 0.507 | 0.178 | 0.124 |
| NCI-H1666 | 0.899 | 0.801 | 0.489 | 0.28 | 0.299 |
| NCI-H1355 | 1.15 | 1.15 | 0.95 | 0.232 | 0.164 |
| HCC-827 | 1.06 | 0.98 | 1.02 | 0.776 | 0.508 |

| Cell Line | relative viability (first compound 0.05 µM) | relative viability (first compound 0.1581 µM) | relative viability (first compound 0.5 µM) | relative viability (first compound 1.581 µM) | relative viability (first compound 5 µM) |
| --- | --- | --- | --- | --- | --- |
| HARA | 1.09 | 0.986 | 1.02 | 0.215 | 0.0851 |
| HCC-366 | 1.12 | 1.04 | 0.646 | 0.018 | 0.0097 |
| NCI-H322M | 1.16 | 1.45 | 1.21 | 0.878 | 0.45 |
| NCI-H2347 | 1.1 | 0.861 | 0.543 | 0.372 | 0.479 |
| NCI-H1975 | 0.371 | 0.335 | 0.182 | 0.144 | 0.115 |
| NCI-H596 |  | 1.11 | 0.828 | 0.638 | 0.312 |
| ABC-1 | 0.304 | 0.294 | 0.281 | 0.242 | 0.233 |
| A-427 | 1.05 | 1.05 | 0.752 | 0.258 | 0.251 |
| LCLC-97TM1 | 0.77 | 0.71 | 0.354 | 0.0568 | 0.0894 |
| HCC-15 | 0.99 | 0.89 | 0.785 | 0.142 | 0.114 |
| NCI-H650 | 0.89 | 0.78 | 0.512 | 0.163 | 0.214 |
| UMC-11 | 0.634 | 0.596 | 0.119 | 0.131 | 0.0891 |
| NCI-H1651 | 1.05 | 0.9 | 0.994 | 0.708 | 0.256 |
| NCI-H1792 | 0.958 | 0.91 | 0.88 | 0.423 | 0.223 |
| NCI-H2023 | 0.998 | 1.24 | 0.403 | 0.0876 | 0.0864 |
| COR-L 105 | 0.727 | 0.763 | 0.529 | 0.271 | 0.269 |
| NCI-H1734 | 1.01 | 0.884 | 0.59 | 0.234 | 0.143 |
| NCI-H3122 | 1.05 | 0.951 | 0.709 | 0.183 | 0.227 |
| CAL-12T | 0.944 | 0.821 | 0.608 | 0.242 | 0.199 |
| HCC-78 | 0.472 | 0.496 | 0.39 | 0.238 | 0.227 |
| NCI-H2085 | 0.968 | 1.11 | 0.796 | 0.529 | 0.362 |
